From patent US20070232625A1, “Fungicidal Mixtures” (priority 2004, published 2007) come the findings set out here.

SMILES strings stand for the structures.

This experiment concerns Alternaria solani. Kind of experiment: Activity against early blight of tomato caused by Alternaria solani (protective spray test on potted tomato plants). The note with it: tomato cultivar Golden Princess, evaluated after 5 days. The experiment is classed as in vivo. Here is the method:
The active compounds, separately or jointly, were prepared as a stock solution comprising 0.25% by weight of active compound in acetone or DMSO. 1% by weight of the emulsifier Uniperol® EL (wetting agent having emulsifying and dispersant action based on ethoxylated alkylphenols) was added to this solution, and the mixture was diluted with water to the desired concentration.
Leaves of potted plants of the cultivar “Golden Princess” were sprayed to runoff point with an aqueous suspension having the concentration of active compound stated below. The next day, the leaves were infected with an aqueous spore suspension of Alternaria solani in a 2% strength biomalt solution having a density of 0.17×10^6 spores/ml. The plants were then placed in a water-vapor-saturated chamber at temperatures between 20 and 22° C. After 5 days, the disease on the untreated but infected control plants had developed to such an extent that the infection could be determined visually in %.
The visually determined percentages of infected leaf areas were converted into efficacies in % of the untreated control:
The efficacy (E) is calculated as follows using Abbot's formula: E=(1−α/β)·100 • α corresponds to the fungal infection of the treated plants in % and • β corresponds to the fungal infection of the untreated (control) plants in %
An efficacy of 0 means that the infection level of the treated plants corresponds to that of the untreated control plants; an efficacy of 100 means that the treated plants were not infected.
The expected efficacies of mixtures of active compounds were determined using Colby's formula (Colby, S. R. “Calculating synergistic and antagonistic responses of herbicide combinations”, Weeds, 15, 20-22, 1967) and compared with the observed efficacies.
Colby's formula: E=x+y−x·y/100 • E expected efficacy, expressed in % of the untreated control, when using the mixture of the active compounds A and B at the concentrations a and b • x efficacy, expressed in % of the untreated control, when using the active compound A at the concentration a
y efficacy, expressed in % of the untreated control, when using the active compound B at the concentration b

For `CC1CCN(c2c(-c3c(F)cc(F)cc3F)c(Cl)nc3ncnn23)CC1` [I, 5-chloro-7-(4-methylpiperidin-1-yl)-6-(2,4,6-trifluorophenyl)-[1,2,4]triazolo[1,5-a]pyrimidine], the “Efficacy in % of the untreated control” value is, setting by setting: (1.25 ppm active compound in the spray liquor) 0%; (5 ppm active compound in the spray liquor, infected next day) 22%.

With `CO/N=C(\Cc1cccnc1)c1cc(Cl)cc(Cl)c1` [II (pyrifenox), 1-(3,5-dichlorophenyl)-2-pyridin-3-ylethanone-O-methyloxime], the “Efficacy in % of the untreated control” value is, setting by setting: (1 ppm active compound in the spray liquor) 0%; (6.25 ppm active compound in the spray liquor) 0%.
